Experimental data reported in patent publication US20070281992A1, “COMBINATION OF GYRASE B INHIBITORS AND PROTEIN SYNTHESIS INHIBITORS AND USES THEREOF” (priority 2006, published 2007).
Like-named read-outs stand apart in the source and are kept apart here.

Legend:
[1] = system: Unconfirmed Vancomycin-intermediate Staphylococcus aureus Isolates; assay: MIC assay (NCCLS broth dilution), unconfirmed VISA isolates; type: cell-based; details: for MIC: read-out: Minimal Inhibitory Concentration
Procedure: (§1) Antibiotics: novobiocin, tetracycline, minocycline, oxacillin, and vancomycin were all purchased from Sigma-Aldrich. Linezolid was obtained from Pfizer, Inc. Novobiocin/tetracycline and novobiocin/minocycline were tested in a 2.5:1 ratio to mimic the serum levels. (Vavra, J. J., 1967, Development of resistance to novobiocin, tetracycline, and novobiocin-tetracycline combinations in Staphylococcus aureus populations, J. Bacteriol 93(3):801). Compounds were tested across a concentration range consisting of 11 two-fold serial dilutions of test agent.
(§2) Stock solutions were prepared in sterile deionized water; novobiocin stock concentration was 1600 μg/mL and all other drugs stock solutions were prepared at 640 μg/mL. The stock solutions were allowed to sit at room temperature for one hour to auto-sterilize prior to use in the test. All compounds were in solution in water. The control agent was vancomycin hydrochloride, Sigma Chemical Lot # 015K0825.
(§3) The test organisms for the assay were 52 MSSA, 52 MRSA, 8 VISA, 7 VISE, and 3 LRSA isolates. Quality control strains included Staphylococcus aureus 0100 (ATCC 29213) and Enterococcus faecalis (ATCC 29212).
(§4) The MIC assay was performed according to published NCCLS guidelines. (National Committee for Clinical Laboratory Standards, Methods for Dilution Antimicrobial Susceptibility Tests for Bacteria that Grow Aerobically; Approved Standard-Sixth Edition, NCCLS Document M7-A6 [ISBN 1-56238-486-4], NCCLS, 940 West Valley Road, Suite 1400, Wayne, Pa. 19087-1898 USA, 2003). The test medium was Mueller Hinton II Broth for all organisms.

[2] = system: Methicillin-Resistant Staphylococcus aureus Isolates; assay: MIC assay (NCCLS broth dilution), MRSA clinical isolates; type: cell-based; details: for MIC: read-out: Minimal Inhibitory Concentration
Procedure: as §1, §2, §3, §4

[3] = Staphylococcus aureus, 52 MRSA isolates, combinations at 2.5:1, given as NB/partner

MIC Range ([1]; 6 unconfirmed VISA isolates (vancomycin MIC 4 ug/ml), combinations at 2.5:1): ≦.04-.15 μg/ml
MIC ([1]; Staphylococcus aureus, Unconfirmed VISA isolate 2013, 03MAR06): 0.08 µg/mL
MIC ([1]; Staphylococcus aureus, Unconfirmed VISA isolate 2014, 03MAR06): 0.15 µg/mL
MIC ([1]; Staphylococcus aureus, Unconfirmed VISA isolate 2015, 03MAR06): ≤ 0.04 µg/mL
MIC ([1]; Staphylococcus aureus, Unconfirmed VISA isolate 2016, 03MAR06): ≤ 0.04 µg/mL
MIC ([1]; Staphylococcus aureus, Unconfirmed VISA isolate 2017, 03MAR06): 0.15 µg/mL
MIC ([1]; Staphylococcus aureus, Unconfirmed VISA isolate 2019, 03MAR06): ≤ 0.04 µg/mL
MIC50 ([1]; Staphylococcus aureus, 6 unconfirmed VISA isolates (vancomycin MIC 4 ug/ml), combinations at 2.5:1): ≤ 0.04 µg/mL
MIC Range ([2]; 52 MRSA isolates, combinations at 2.5:1, given as NB/partner): ≦.04-.62 μg/ml
MIC ([2]; Staphylococcus aureus, MRSA isolate 757, 24FEB06): 0.31 µg/mL
MIC ([2]; Staphylococcus aureus, MRSA isolate 758, 03MAR06): 0.08 µg/mL
MIC ([2]; Staphylococcus aureus, MRSA isolate 758, 24FEB06): 0.15 µg/mL
MIC ([2]; Staphylococcus aureus, MRSA isolate 760, 03MAR06): 0.08 µg/mL
MIC ([2]; Staphylococcus aureus, MRSA isolate 760, 24FEB06): 0.15 µg/mL
MIC ([2]; Staphylococcus aureus, MRSA isolate 763, 22FEB06): 0.08 µg/mL
MIC ([2]; Staphylococcus aureus, MRSA isolate 765, 22FEB06): 0.15 µg/mL
MIC ([2]; Staphylococcus aureus, MRSA isolate 766, 22FEB06): 0.08 µg/mL
MIC ([2]; Staphylococcus aureus, MRSA isolate 767, 22FEB06): 0.15 µg/mL
MIC ([2]; Staphylococcus aureus, MRSA isolate 768, 22FEB06): 0.15 µg/mL
MIC ([2]; Staphylococcus aureus, MRSA isolate 769, 22FEB06): 0.15 µg/mL
MIC ([2]; Staphylococcus aureus, MRSA isolate 770, 22FEB06): ≤ 0.04 µg/mL
MIC ([2]; Staphylococcus aureus, MRSA isolate 771, 22FEB06): 0.08 µg/mL
MIC ([2]; Staphylococcus aureus, MRSA isolate 772, 22FEB06): 0.15 µg/mL
MIC ([2]; Staphylococcus aureus, MRSA isolate 773, 24FEB06): 0.31 µg/mL
MIC ([2]; Staphylococcus aureus, MRSA isolate 774, 24FEB06): 0.31 µg/mL
MIC ([2]; Staphylococcus aureus, MRSA isolate 775, 24FEB06): 0.15 µg/mL
MIC ([2]; Staphylococcus aureus, MRSA isolate 776, 24FEB06): 0.15 µg/mL
MIC ([2]; Staphylococcus aureus, MRSA isolate 777, 24FEB06): ≤ 0.04 µg/mL
MIC ([2]; Staphylococcus aureus, MRSA isolate 778, 24FEB06): ≤ 0.04 µg/mL
MIC ([2]; Staphylococcus aureus, MRSA isolate 886, 24FEB06): 0.15 µg/mL
MIC ([2]; Staphylococcus aureus, MRSA isolate 887, 24FEB06): 0.08 µg/mL
MIC ([2]; Staphylococcus aureus, MRSA isolate 888, 24FEB06): 0.15 µg/mL
MIC ([2]; Staphylococcus aureus, MRSA isolate 889, 24FEB06): 0.15 µg/mL
MIC ([2]; Staphylococcus aureus, MRSA isolate 1004, 24FEB06): 0.31 µg/mL
MIC ([2]; Staphylococcus aureus, MRSA isolate 1010, 22FEB06): 0.31 µg/mL
MIC ([2]; Staphylococcus aureus, MRSA isolate 1012, 22FEB06): 0.31 µg/mL
MIC ([2]; Staphylococcus aureus, MRSA isolate 1013, 22FEB06): 0.31 µg/mL
MIC ([2]; Staphylococcus aureus, MRSA isolate 1014, 22FEB06): 0.15 µg/mL
MIC ([2]; Staphylococcus aureus, MRSA isolate 1015, 22FEB06): 0.08 µg/mL
MIC ([2]; Staphylococcus aureus, MRSA isolate 1016, 22FEB06): 0.31 µg/mL
MIC ([2]; Staphylococcus aureus, MRSA isolate 1017, 22FEB06): 0.08 µg/mL
MIC ([2]; Staphylococcus aureus, MRSA isolate 1021, 22FEB06): 0.15 µg/mL
MIC ([2]; Staphylococcus aureus, MRSA isolate 1022, 22FEB06): 0.31 µg/mL
MIC ([2]; Staphylococcus aureus, MRSA isolate 1023, 22FEB06): 0.15 µg/mL
MIC ([2]; Staphylococcus aureus, MRSA isolate 1024, 22FEB06): 0.15 µg/mL
MIC ([2]; Staphylococcus aureus, MRSA isolate 1025, 22FEB06): 0.15 µg/mL
MIC ([2]; Staphylococcus aureus, MRSA isolate 1135, 22FEB06): 0.31 µg/mL
MIC ([2]; Staphylococcus aureus, MRSA isolate 1136, 22FEB06): 0.31 µg/mL
MIC ([2]; Staphylococcus aureus, MRSA isolate 1137, 22FEB06): 0.62 µg/mL
MIC ([2]; Staphylococcus aureus, MRSA isolate 1138, 22FEB06): 0.15 µg/mL
MIC ([2]; Staphylococcus aureus, MRSA isolate 1222, 03MAR06): 0.08 µg/mL
MIC ([2]; Staphylococcus aureus, MRSA isolate 1222, 24FEB06): 0.08 µg/mL
MIC ([2]; Staphylococcus aureus, MRSA isolate 1653, 03MAR06): ≤ 0.04 µg/mL
MIC ([2]; Staphylococcus aureus, MRSA isolate 1658, 03MAR06): 0.08 µg/mL
MIC ([2]; Staphylococcus aureus, MRSA isolate 1659, 03MAR06): 0.08 µg/mL
MIC ([2]; Staphylococcus aureus, MRSA isolate 1661, 03MAR06): ≤ 0.04 µg/mL
MIC ([2]; Staphylococcus aureus, MRSA isolate 1729, 03MAR06): 0.08 µg/mL
MIC ([2]; Staphylococcus aureus, MRSA isolate 1730, 24FEB06): 0.15 µg/mL
MIC ([2]; Staphylococcus aureus, MRSA isolate 2009, 24FEB06): ≤ 0.04 µg/mL
MIC ([2]; Staphylococcus aureus, MRSA isolate 2010, 24FEB06): 0.15 µg/mL
MIC ([2]; Staphylococcus aureus, MRSA isolate 2011, 24FEB06): 0.15 µg/mL
MIC50 [2, 3]: 0.15 µg/mL
MIC90 [2, 3]: 0.312 µg/mL
Structure (SMILES): CO[C@@H]1[C@@H](OC(N)=O)[C@@H](O)[C@H](Oc2ccc3c(O)c(NC(=O)c4ccc(O)c(CC=C(C)C)c4)c(=O)oc3c2C)OC1(C)C [NB, novobiocin]
